In patent US5236837A, “Enzymatic reagent for D-malate determination” (Boehringer Mannheim GmbH, priority 1989, dated 1993):
Where two headings read alike, the source gives them in different places.

Columns and labels:
[1] = tested on: D-malic enzyme from Pseudomonas fluorescens; details: cited from earlier work
[2] = molecular target: T1, NAD+-dependent D-malate dehydrogenase (decarboxylating, E.C. 1.1.1.83) from E. coli (D-MDH, E. coli DSM 5496) (Escherichia coli, UniProt P76251); test: Km determination and EDTA effect on the enzyme according to the invention; assay type: biochemical; details: EDTA 0.7 mg/ml test solution
T1 construct: two 42 kD subunits, full length, no tag
T1 sequence (P76251 1-361): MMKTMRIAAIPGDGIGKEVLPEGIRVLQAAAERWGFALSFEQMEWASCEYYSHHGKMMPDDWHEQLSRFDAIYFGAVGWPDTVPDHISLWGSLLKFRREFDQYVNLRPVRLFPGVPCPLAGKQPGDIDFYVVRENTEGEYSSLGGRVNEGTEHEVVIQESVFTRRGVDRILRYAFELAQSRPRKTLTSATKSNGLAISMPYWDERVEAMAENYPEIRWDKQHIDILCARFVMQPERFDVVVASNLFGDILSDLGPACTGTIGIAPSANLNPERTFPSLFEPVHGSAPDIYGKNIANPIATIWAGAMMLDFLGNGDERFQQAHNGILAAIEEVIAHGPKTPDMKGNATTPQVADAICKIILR

[3] = tested on: D-malic enzyme from E. coli K12 (Crookes strain); details: EDTA 3.3 μmol/ml; raw extract; cited from earlier work
[4] = substrate: NC(=O)c1ccc[n+]([C@@H]2O[C@H](COP(=O)([O-])OP(=O)(O)OC[C@H]3O[C@@H](n4cnc5c(N)ncnc54)[C@H](O)[C@@H]3O)[C@@H](O)[C@H]2O)c1; test: Km determination and EDTA effect on the enzyme according to the invention; assay type: biochemical, E. coli; details: other: Tris, pH 8.5, 25° C., pH 8.5
[5] = substrate: O=C(O)C[C@@H](O)C(=O)O; test: as above; assay type: biochemical, E. coli

For `NC(=O)c1ccc[n+]([C@@H]2O[C@H](COP(=O)([O-])OP(=O)(O)OC[C@H]3O[C@@H](n4cnc5c(N)ncnc54)[C@H](O)[C@@H]3O)[C@@H](O)[C@H]2O)c1` [NAD^+], the Km ([1]; read-out: Km for NAD+) is given as 80 µM.

For `O=C(O)CN(CCN(CC(=O)O)CC(=O)O)CC(=O)O` [EDTA], the “Inhibition of enzyme activity by EDTA” value [2] is listed as “not inhibited” and the “Inhibition of the reaction by EDTA” value [3] is listed as “inhibited”.

In the case of `O=C(O)C[C@@H](O)C(=O)O` [D-malate], the Km ([1]; read-out: Km for malate) is given as 300 µM.

B1: NAD+-dependent D-malate dehydrogenase (decarboxylating, E.C. 1.1.1.83) from E. coli (D-MDH, E. coli DSM 5496) (Escherichia coli K-12) (protein)
chain: T1 sequence (P76251 1-361)
notes: two 42 kD subunits, full length, no tag
In the case of B1, the Km [4] is reported as 400 µM, the Km ([5]; other: HEPES, pH 9.0, 25° C., pH 9.0) is reported as 1500 µM and the Km ([5]; other: Tris, pH 8.5, 25° C., pH 8.5) is reported as 1100 µM.
